Legend:
advanced HCC [1] = assay: Phase II multi-center, randomized, double-blind, placebo-controlled study of VT-122 or placebo on a background of stable-dose sorafenib (Example 1); format: in vivo, human; details: advanced HCC patients
Experimental: This was a multi-center, randomized, double-blind, double-dummy, placebo-controlled study.
VT-122 (Vicus Therapeutics, Morristown N.J.): patients entered a three week dose escalation period, with propranolol maximum at 120 mg, and etodolac maximum at 600 mg. VT-122 was administered in split doses in the morning and evening.
After the three week dose escalation period, patients were to continue therapy for four four-week cycles.
Secondary endpoint=lean body mass, overall survival, muscle function, symptom assessment.

advanced HCC [2] = assay: Randomized investigator initiated trial: sorafenib alone (Group S) vs sorafenib after one week of propranolol and etodolac (Group SPE) (Example 2); format: in vivo, human
Experimental: Data on the use of the combination in advanced hepatocellular carcinoma patients are lacking.
Patients with advanced HCC were eligible for this randomized investigator initiated trial. Patients received propranolol (P) and etodolac (E) (or “PE”) daily for one week prior to starting sorafenib (S). PE was administered to maximize the therapeutic benefit and minimize side effects. The primary endpoint was survival.
Twenty-four patients were randomized to either sorafenib alone (Group S) or sorafenib after one week of propranolol and etodolac (Group SPE). Population: median age, 54.6 years; 74% male; BMI, 23.0; C-reactive protein (CRP), 69.3; cirrhosis (8.8%), fibrosis (50%), hepatitis B positive (85%). The patient population is summarized:
The study design is schematically illustrated in FIG. 6. Patients received PE daily for one week prior to starting S.
Dosing for PE was as follows: • 8 AM 20 mg propranolol+300 mg etodolac • 3 PM 20 mg propranolol • 8 PM 300 mg etodolac

CNC(=O)c1cc(Oc2ccc(NC(=O)Nc3ccc(Cl)c(C(F)(F)F)c3)cc2)ccn1 [Sorafenib, 4-[4-[[4-chloro-3-(trifluoromethyl)phenyl]carbamoylamino]phenoxy]-N-methyl-pyridine-2-carboxamide]
Kaplan-Meier median survival (95% CI), days (advanced HCC [1]): 267 (32, NR) days | percent of patients with loss in weight (advanced HCC [2]; FIG. 8): 50% | 12 Month Survival, Percent (advanced HCC [2]; N=12 per group, table): 25.0% | Hand foot skin reaction (HFS) grade 2 or 3, percent of patients (advanced HCC [2]; advanced HCC patients): 67% | Median survival (advanced HCC [2]; advanced HCC patients): 10 months | Twelve month survival (advanced HCC [2]; advanced HCC patients, 12 per group): 25.0% | 12 Month Survival, Alive (advanced HCC [2]; number of patients alive of N=12): 3
